Source: ChEMBL document CHEMBL2401678, “Synthesis and changes in affinity for NOP and opioid receptors of novel hexapeptides containing β(2)-tryptophan analogues” (Bioorg Med Chem Lett, 2013)
Calls of active or inactive are those of the source. No cut-off for these calls is given here. *1 amine or outer side, *2 acyl side, *3 side chain or, on linkers, in order; H or OH if unused. Where a SMILES comes first, the peptide text is derived from it. [ ]: non-standard residue; d: D form. X2 = COc1ccc2[nH]cc([C@H](CN[*:1])C(=O)[*:2])c2c1; X1 = Cn1cc([C@H](CN[*:1])C(=O)[*:2])c2ccccc21

Assays:
Nociceptin receptor [1] = biological target: T1, Nociceptin receptor (Rattus norvegicus, UniProt P35370); assay: Activity at Wistar rat NOP receptor assessed as inhibition of low-frequency electrically-stimulated vas deferens contraction in presence of naloxone
[2] = biological target: Nociceptin receptor (Rattus norvegicus) (UniProt P35370); assay: Activity at Wistar rat NOP receptor assessed as inhibition of low-frequency electrically-stimulated vas deferens contraction at 1 x 10^-6 M relative to control
Nociceptin receptor [3] = biological target: T1, Nociceptin receptor; assay: Activity at Wistar rat NOP receptor assessed as inhibition of low-frequency electrically-stimulated vas deferens contraction
[4] = biological target: Nociceptin receptor (Rattus norvegicus) (UniProt P35370); assay: Activity at Wistar rat NOP receptor assessed as inhibition of low-frequency electrically-stimulated vas deferens contraction at 1 x 10^-6 M in presence of naloxone relative to control
[5] = biological target: Nociceptin receptor (Rattus norvegicus) (UniProt P35370); assay: Activity at Wistar rat NOP receptor assessed as inhibition of low-frequency electrically-stimulated vas deferens contraction at 1 x 10^-6 M in presence of naloxone benzoylhydrazone
[6] = biological target: Nociceptin receptor (Rattus norvegicus) (UniProt P35370); assay: Activity at Wistar rat NOP receptor assessed as inhibition of low-frequency electrically-stimulated vas deferens contraction at 1 x 10^-11 to 1 x 10^-5 M in presence of naloxone
[7] = biological target: Mu-type opioid receptor (Rattus norvegicus) (UniProt P33535); assay: Activity at Wistar rat mu opioid receptor assessed as inhibition of low-frequency electrically-stimulated vas deferens contraction at 1 x 10^-6 to 1 x 10^-5 M in presence of naloxone benzoylhydrazone
[8] = biological target: Mu-type opioid receptor (Rattus norvegicus) (UniProt P33535); assay: Activity at Wistar rat mu opioid receptor assessed as inhibition of low-frequency electrically-stimulated vas deferens contraction at 1 x 10^-5 M relative to control
[9] = biological target: Mu-type opioid receptor (Rattus norvegicus) (UniProt P33535); assay: Activity at Wistar rat mu opioid receptor assessed as inhibition of low-frequency electrically-stimulated vas deferens contraction at 1 x 10^-5 M in presence of naloxone relative to control
Mu-type opioid receptor [10] = biological target: T2, Mu-type opioid receptor (Rattus norvegicus, UniProt P33535); assay: Activity at Wistar rat mu opioid receptor assessed as inhibition of low-frequency electrically-stimulated vas deferens contraction in presence of naloxone
[11] = biological target: Mu-type opioid receptor (Rattus norvegicus) (UniProt P33535); assay: Activity at Wistar rat mu opioid receptor assessed as inhibition of low-frequency electrically-stimulated vas deferens contraction at 1 x 10^-11 to […] in presence of naloxone
Mu-type opioid receptor [12] = biological target: T2, Mu-type opioid receptor; assay: Activity at Wistar rat mu opioid receptor assessed as inhibition of low-frequency electrically-stimulated vas deferens contraction
[13] = biological target: T3, Nociceptin/mu opioid receptor (Rattus norvegicus) (UniProt P33535+P35370); assay: Activity at Wistar rat NOP/mu opioid receptor assessed as inhibition of low-frequency electrically-stimulated vas deferens contraction at 1 x 10^-5 M in presence of naloxone relative to control; format: protein assay
[14] = biological target: T3, Nociceptin/mu opioid receptor (Rattus norvegicus); assay: Activity at Wistar rat NOP/mu opioid receptor assessed as inhibition of low-frequency electrically-stimulated vas deferens contraction at 1 x 10^-5 M in presence of naloxone; format: protein assay
[15] = biological target: T4, Nociceptin/mu opioid receptor (Rattus norvegicus, UniProt P33535+P35370); assay: Activity at Wistar rat NOP/mu opioid receptor assessed as inhibition of low-frequency electrically-stimulated vas deferens contraction in presence of naloxone; format: protein assay
[16] = biological target: T3, Nociceptin/mu opioid receptor (Rattus norvegicus); assay: Activity at Wistar rat NOP/mu opioid receptor assessed as inhibition of low-frequency electrically-stimulated vas deferens contraction at 1 x 10^-5 M relative to control; format: protein assay
[17] = biological target: T3, Nociceptin/mu opioid receptor (Rattus norvegicus); assay: Activity at Wistar rat NOP/mu opioid receptor assessed as inhibition of low-frequency electrically-stimulated vas deferens contraction at 1 x 10^-5 M in presence of naloxone benzoylhydrazone; format: protein assay
[18] = biological target: T4, Nociceptin/mu opioid receptor; assay: Activity at Wistar rat NOP/mu opioid receptor assessed as inhibition of low-frequency electrically-stimulated vas deferens contraction; format: protein assay
[19] = biological target: Mu-type opioid receptor (Rattus norvegicus) (UniProt P33535); assay: Activity at Wistar rat mu opioid receptor assessed as inhibition of low-frequency electrically-stimulated vas deferens contraction at 1 x 10^-6 to 1 x 10^-5 M
[20] = biological target: Mu-type opioid receptor (Rattus norvegicus) (UniProt P33535); assay: Activity at Wistar rat mu opioid receptor assessed as inhibition of low-frequency electrically-stimulated vas deferens contraction up to 1 x 10^-5 M in presence of naloxone benzoylhydrazone

Sequence of Nociceptin receptor (Rattus norvegicus) (P35370 whole entry): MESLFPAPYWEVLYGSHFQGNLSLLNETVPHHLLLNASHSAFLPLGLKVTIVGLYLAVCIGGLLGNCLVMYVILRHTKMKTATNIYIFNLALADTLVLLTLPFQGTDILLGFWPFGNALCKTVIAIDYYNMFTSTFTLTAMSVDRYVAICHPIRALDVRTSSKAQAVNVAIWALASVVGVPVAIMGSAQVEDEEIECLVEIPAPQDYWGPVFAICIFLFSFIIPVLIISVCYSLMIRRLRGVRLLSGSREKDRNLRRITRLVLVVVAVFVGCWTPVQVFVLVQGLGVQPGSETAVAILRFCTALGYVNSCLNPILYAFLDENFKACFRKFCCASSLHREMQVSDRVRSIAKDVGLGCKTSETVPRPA
T1 sequence (P35370 whole entry): as above
Sequence of Mu-type opioid receptor (Rattus norvegicus) (P33535 whole entry): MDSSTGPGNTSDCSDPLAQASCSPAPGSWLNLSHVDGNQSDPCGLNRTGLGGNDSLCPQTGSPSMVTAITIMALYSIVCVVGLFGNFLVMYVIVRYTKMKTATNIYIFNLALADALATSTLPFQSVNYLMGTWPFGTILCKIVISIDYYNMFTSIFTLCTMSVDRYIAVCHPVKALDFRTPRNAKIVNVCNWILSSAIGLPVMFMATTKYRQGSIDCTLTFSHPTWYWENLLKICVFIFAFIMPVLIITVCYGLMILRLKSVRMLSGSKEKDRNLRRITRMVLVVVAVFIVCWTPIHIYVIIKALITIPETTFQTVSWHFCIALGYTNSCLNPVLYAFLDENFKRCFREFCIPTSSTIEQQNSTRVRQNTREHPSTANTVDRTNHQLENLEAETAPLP
T3 sequence (P33535 whole entry, looked up): as the sequence (P33535 whole entry) above
T3 sequence (P35370 whole entry, looked up): as the sequence (P35370 whole entry) above
T2 sequence (P33535 whole entry): as the sequence (P33535 whole entry) above

For Ac-RYYRWK-NH2, which EC50 (Nociceptin receptor [1]) is on record?
Its EC50 is 6.17 nM.

And the Emax [2]?
The Emax was -36%.

And the EC50 (Nociceptin receptor [3])?
Its EC50 is 15.8 nM.

What about the Emax [4] of the same compound?
Its Emax is -31%.

And the inhibition [5]?
Its inhibition is “inactive”.

Which EC50 (Nociceptin receptor [1]) does the source give for `COc1ccc2[nH]cc([C@H](CNC(=O)[C@H](CCCNC(=N)N)NC(=O)[C@H](Cc3ccc(O)cc3)NC(=O)[C@H](Cc3ccc(O)cc3)NC(=O)[C@H](CCCNC(=N)N)NC(C)=O)C(=O)N[C@@H](CCCCN)C(N)=O)c2c1` (Ac-RYYR[X2]K-NH2) here?
The EC50 was 1660 nM.

And the Emax [2]?
The Emax was -52%.

And the inhibition [6]?
Its inhibition is “inactive”.

What about the EC50 (Nociceptin receptor [3]) of the same compound?
The EC50 was 1410 nM.

And the Emax [4]?
Its Emax is -12%.

Which results are given for `CSCC[C@H](NC(=O)[C@H](Cc1ccccc1)NC(=O)[C@H](CCCNC(=N)N)NC(C)=O)C(=O)NC[C@H](C(=O)N[C@@H](CCSC)C(=O)N[C@@H](CCCCN)C(N)=O)c1cn(C)c2ccccc12` (Ac-RFM[X1]MK-NH2)?
inhibition [7]: inactive; Emax [8]: -50%; Emax [9]: -15%; EC50 (Mu-type opioid receptor [10]): 1620 nM; inhibition [11]: inactive; EC50 (Mu-type opioid receptor [12]): 1230 nM

Which Emax [13] does the source give for `CC(=O)N[C@@H](CCCNC(=N)N)C(=O)N[C@@H](Cc1ccc(O)cc1)C(=O)N[C@@H](Cc1ccc(O)cc1)C(=O)N[C@@H](CCCNC(=N)N)C(=O)NC[C@H](C(=O)N[C@@H](CCCCN)C(N)=O)c1cn(C)c2ccccc12` (Ac-RYYR[X1]K-NH2) here?
The Emax was -17%.

And the inhibition [14]?
Its inhibition is “Active”.

What about the pEC50 [15] of the same compound?
Its pEC50 is 6.21.

What about the Emax [16] of the same compound?
Its Emax is -36%.

And the inhibition [17]?
The inhibition was “inactive”.

What about the pEC50 [18] of the same compound?
The pEC50 was 6.5.

Which inhibition [7] does the source give for Ac-RFMWMK-NH2 here?
Its inhibition is “inactive”.

What about the Emax [8] of the same compound?
The Emax was -52%.

What about the Emax [9] of the same compound?
The Emax was -14%.

What about the EC50 (Mu-type opioid receptor [10]) of the same compound?
The EC50 was 1150 nM.

And the inhibition [11]?
Its inhibition is “inactive”.

What about the EC50 (Mu-type opioid receptor [12]) of the same compound?
Its EC50 is 1020 nM.

What does the source list for `COc1ccc2[nH]cc([C@H](CNC(=O)[C@H](CCSC)NC(=O)[C@H](Cc3ccccc3)NC(=O)[C@H](CCCNC(=N)N)NC(C)=O)C(=O)N[C@@H](CCSC)C(=O)N[C@@H](CCCCN)C(N)=O)c2c1` (Ac-RFM[X2]MK-NH2)?
inhibition [19]: Active; inhibition [20]: inactive; Emax [13]: -14%; pEC50 [15]: 6.26; Emax [16]: -34%; pEC50 [18]: 5.78

For `C[C@H](NC(=O)CNC(=O)[C@@H](NC(=O)[C@H](Cc1ccccc1)NC(=O)CNC(=O)CNC(=O)[C@@H](N)Cc1ccccc1)[C@@H](C)O)C(=O)N[C@@H](CCCNC(=N)N)C(=O)N[C@@H](CCCCN)C(=O)N[C@@H](CO)C(=O)N[C@@H](C)C(=O)N[C@@H](CCCNC(=N)N)C(=O)N[C@@H](CCCCN)C(N)=O`, which Emax [2] is on record?
The Emax was -73%.
